Experimental data: PMC9334755 (Cancer Biology & Medicine, 2021)

Key:
[1] = tested on: spontaneous canine B-cell lymphoma; assay: Spontaneous canine B-cell lymphoma; type: in vivo, dog; parameters: key to Outcome: CR: complete response; PR: partial response; PD: progressive disease; SD: stable disease
Description: Dogs with spontaneous lymphoma were purchased from the China Agricultural University Veterinary Teaching Hospital, and the study was approved by the institutional animal care and use committee of Shouyao Holdings (approval No. CTA-2014003). The inclusion criterion was a confirmed histologic diagnosis of B-cell lymphoma (on the basis of immunohistochemistry for CD21 and CD79a). SY-1530 capsules (20–40 mg) were administered daily until disease progression. The dogs were re-examined every week for 4 weeks and subsequently biweekly. The sum of the longest diameters of all target lesions was defined as the tumor burden. According to the criteria for evaluation of the response of peripheral nodal lymphoma in dogs developed by the Veterinary Cooperative Oncology Group, the response was classified as complete response, partial response, progressive disease, or stable disease.

[2] = tested on: B cell; assay: Cell viability assay (CellTiter-Blue), human B cells; type: cell-based; details: read-out: IC50 (nM), growth of B cell
Description: Cells were seeded on 96-well plates (9,000 cells/well), cultured at 37 °C in 5% CO2 overnight, and incubated with different concentrations of compounds for 3 or 7 days. Then the cells were stained with CellTiter-Blue® reagent (Promega) for 4 h at 37 °C. The fluorescence signals were detected with a FlexStation 3, and the IC50 values of each compound were determined with GraFit software (Version 6.0).
CD19^+ B (>80% purity) and CD3^+ T (>90% purity) cells were purified with human B cell enrichment cocktail and human T cell enrichment cocktail (Stem Cell Technology), respectively. Cells were seeded on 12-well plates and incubated with different concentrations of BTK inhibitors for 1 h. B cells were stimulated with 50 µg/mL anti-human IgM F(ab′)2, and T cells were stimulated with 50 µg/mL anti-CD3/CD28 beads overnight. In the washout groups, the cell medium containing the indicated inhibitors was replaced with fresh medium before stimulation. Then cells were then incubated with anti-human CD69 for 1 h and analyzed with a Guava flow cytometer.

[3] = biological target: YES1 (Homo sapiens, UniProt P07947); assay: Protein kinase panel at 1 µM, YES1; type: biochemical
[4] = biological target: BTK (Homo sapiens, UniProt Q06187); assay: HTRF assay of BTK activity; type: biochemical; details: double reciprocal curve
[5] = biological target: CYP2C9 (Homo sapiens, UniProt P11712); type: in vitro ADME
From the text: Cancer Biol Med Vol 19, No 7 July 2022 3
Table S8 Inhibition of CYP isozymes by SY-1530
Table S9 Preclinical safety of SY-1530
Group Single-dose toxicity Multiple-dose toxicity
Animal Rat Beagle dog Rat Beagle dog
(1 picture or pasted object on this page, not shown here)

Sequence of YES1 (P07947 whole entry, species assumed): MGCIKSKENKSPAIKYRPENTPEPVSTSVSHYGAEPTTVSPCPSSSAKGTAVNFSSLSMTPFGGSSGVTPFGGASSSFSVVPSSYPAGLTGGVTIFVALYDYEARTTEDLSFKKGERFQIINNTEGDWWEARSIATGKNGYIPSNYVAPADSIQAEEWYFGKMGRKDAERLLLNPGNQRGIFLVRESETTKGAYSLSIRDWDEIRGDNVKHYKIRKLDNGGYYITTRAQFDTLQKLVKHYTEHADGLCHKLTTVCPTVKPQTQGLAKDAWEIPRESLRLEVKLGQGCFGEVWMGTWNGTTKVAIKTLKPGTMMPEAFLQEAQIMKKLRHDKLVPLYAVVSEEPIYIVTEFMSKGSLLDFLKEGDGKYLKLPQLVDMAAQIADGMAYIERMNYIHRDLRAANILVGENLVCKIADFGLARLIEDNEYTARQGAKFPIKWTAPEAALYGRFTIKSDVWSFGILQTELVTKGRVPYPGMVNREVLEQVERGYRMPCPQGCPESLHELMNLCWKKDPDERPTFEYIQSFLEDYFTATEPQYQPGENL
Sequence of CYP2C9 (P11712 whole entry): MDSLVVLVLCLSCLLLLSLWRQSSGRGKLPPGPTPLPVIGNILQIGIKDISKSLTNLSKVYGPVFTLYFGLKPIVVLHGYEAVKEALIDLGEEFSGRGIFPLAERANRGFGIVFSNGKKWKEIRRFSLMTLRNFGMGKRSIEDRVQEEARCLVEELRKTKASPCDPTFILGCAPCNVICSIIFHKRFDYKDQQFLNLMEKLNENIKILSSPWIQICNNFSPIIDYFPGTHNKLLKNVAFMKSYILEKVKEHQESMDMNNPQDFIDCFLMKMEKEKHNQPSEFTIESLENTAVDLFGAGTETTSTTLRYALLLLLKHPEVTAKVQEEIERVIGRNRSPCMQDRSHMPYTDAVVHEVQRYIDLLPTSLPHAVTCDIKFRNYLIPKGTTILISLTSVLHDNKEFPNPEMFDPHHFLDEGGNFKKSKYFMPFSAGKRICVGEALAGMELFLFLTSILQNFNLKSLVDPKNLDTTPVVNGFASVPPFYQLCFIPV
Sequence of BTK (Q06187 whole entry): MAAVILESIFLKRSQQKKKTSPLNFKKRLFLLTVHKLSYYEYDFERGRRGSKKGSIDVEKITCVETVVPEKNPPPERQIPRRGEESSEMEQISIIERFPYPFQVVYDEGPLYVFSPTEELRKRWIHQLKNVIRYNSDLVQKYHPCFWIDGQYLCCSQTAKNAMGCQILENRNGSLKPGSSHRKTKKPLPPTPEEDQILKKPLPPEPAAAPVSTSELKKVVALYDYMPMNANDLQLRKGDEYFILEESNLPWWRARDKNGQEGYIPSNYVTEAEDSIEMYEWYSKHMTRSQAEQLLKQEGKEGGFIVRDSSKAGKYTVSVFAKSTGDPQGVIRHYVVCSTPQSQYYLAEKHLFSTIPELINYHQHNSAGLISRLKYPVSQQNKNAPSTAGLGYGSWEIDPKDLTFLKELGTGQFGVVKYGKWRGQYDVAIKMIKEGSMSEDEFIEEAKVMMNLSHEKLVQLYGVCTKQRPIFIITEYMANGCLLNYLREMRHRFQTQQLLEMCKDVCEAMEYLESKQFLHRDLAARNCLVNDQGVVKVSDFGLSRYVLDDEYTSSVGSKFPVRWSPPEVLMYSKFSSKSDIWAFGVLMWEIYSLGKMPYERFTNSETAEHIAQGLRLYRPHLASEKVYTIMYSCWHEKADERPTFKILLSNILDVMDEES

Compound: COC/C=C/C(=O)N1CC[C@@H](n2nc(-c3ccc(Oc4ccccc4)cc3)c(C(N)=O)c2N)C1 [SY-1530]
- Outcome ([1]; Dog 01, stage IVb, dose 20/35 mg/kg, treatment interval 21 d): SD/PR
- Outcome ([1]; Dog 02, stage IVa, dose 20/30/40 mg/kg, treatment interval 150 d): CR
- Outcome ([1]; Dog 04, stage IVa, dose 20/30/40 mg/kg, treatment interval 21 d): SD
- Outcome ([1]; Dog 06, stage IVa, dose 20/30/40 mg/kg, treatment interval 21 d): SD
- Outcome ([1]; Dog 07, stage IVa, dose 20/30 mg/kg, treatment interval 14 d): SD
- Outcome ([1]; Dog 08, stage IVa, dose 35 mg/kg, treatment interval 21 d): SD
- Outcome ([1]; Dog 09, stage IVa, dose 35 mg/kg, treatment interval 21 d): SD
- Outcome ([1]; Dog 10, stage IVa, dose 35 mg/kg, treatment interval 28 d): PR
- Outcome ([1]; Dog 11, stage IIIa, dose 35 mg/kg, treatment interval 14 d): PR
- Outcome ([1]; Dog 12, stage IVa, dose 35 mg/kg, treatment interval 21 d): SD
- Number of dogs with complete response ([1]; of 10 dogs): 1
- Number of dogs with partial response ([1]; of 10 dogs): 3
- Number of dogs with stable disease ([1]; of 10 dogs): 6
- IC50 [2]: 1.05 nM
- Inhibition (%), YES1 [3]: 94%
- Type of inhibition with respect to ATP [4]: non-ATP competitive inhibitor
- IC50 [5]: > 25000 nM
